How the values were obtained:
Conditions in all cases: compound at 10 μM
[1] = target: T1, Human melanin-concentrating hormone (MCH1) (Homo sapiens, UniProt Q99705); experiment: Radioligand binding, human melanin-concentrating hormone MCH1 membranes, FlashPlate, [125I]-S36057
T1 construct: purchased Perkin Elmer Biosignal
Method in brief: (§1)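 Cloned human receptor membranes were coated onto FlashPlate wells and incubated with radioligand and compound (added from a 0.5 mM DMSO daughter plate) for 1 hour at room temperature in the dark. Scintillation counting gave percent inhibition, with DMSO defining total and reference ligand defining non-specific binding.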

[2] = target: T2, Mouse urotensin (mUR2) (Mus musculus, UniProt Q8VIH9); experiment: Radioligand binding, mouse urotensin mUR2 membranes, FlashPlate, [125I]-Urotensin II
T2 construct: purchased Perkin Elmer Biosignal
T2 sequence (Q8VIH9 1-385): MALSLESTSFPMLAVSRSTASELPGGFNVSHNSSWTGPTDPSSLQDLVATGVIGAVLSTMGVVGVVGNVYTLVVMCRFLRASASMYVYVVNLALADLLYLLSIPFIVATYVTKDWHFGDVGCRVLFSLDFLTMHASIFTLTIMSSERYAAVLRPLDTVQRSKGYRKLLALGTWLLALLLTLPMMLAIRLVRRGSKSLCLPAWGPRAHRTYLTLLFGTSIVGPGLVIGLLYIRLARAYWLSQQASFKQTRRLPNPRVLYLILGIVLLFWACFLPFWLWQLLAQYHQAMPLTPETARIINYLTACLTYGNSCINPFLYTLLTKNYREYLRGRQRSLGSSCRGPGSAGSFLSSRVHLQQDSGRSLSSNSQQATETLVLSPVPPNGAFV
Method in brief: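 Cloned mouse urotensin (mUR2) receptor membranes from Perkin Elmer Biosignal were immobilized in FlashPlate microplates using a proprietary coating. Each well got 19.5 μl buffer, then 0.5 μl of DMSO, reference ligand, or compound. Adding 5 μl of [125I]-Urotensin II, diluted to 5× final concentration in binding buffer, started binding. Plates were sealed with TopSeal-A and incubated 1 hour at room temperature in the dark. Wells were counted for 30 seconds each on a TopCount after a 60-second delay, and percentage inhibition was calculated.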

[3] = target: T3, Human δ-opioid (DOP) (Homo sapiens, UniProt P41143); experiment: Radioligand binding, human δ-opioid (DOP) membranes, FlashPlate, [3H]-Bremazocine
T3 construct: purchased Perkin Elmer Biosignal
T3 sequence (P41143 whole entry): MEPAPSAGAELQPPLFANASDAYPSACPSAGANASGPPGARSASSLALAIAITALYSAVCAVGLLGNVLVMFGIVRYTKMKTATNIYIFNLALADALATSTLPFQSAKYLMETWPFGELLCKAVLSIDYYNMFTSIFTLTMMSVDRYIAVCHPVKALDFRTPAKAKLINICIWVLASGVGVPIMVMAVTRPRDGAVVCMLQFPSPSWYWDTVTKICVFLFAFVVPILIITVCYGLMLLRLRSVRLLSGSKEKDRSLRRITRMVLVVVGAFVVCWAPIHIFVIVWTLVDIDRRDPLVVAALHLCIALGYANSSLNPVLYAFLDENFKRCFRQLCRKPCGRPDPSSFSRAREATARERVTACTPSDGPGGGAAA
Method in brief: as §1

[4] = target: T4, Human melanocortin (MC5) (Homo sapiens, UniProt P33032); experiment: Radioligand binding, human melanocortin MC5 membranes, FlashPlate, [125I]-NDP-αMSH
T4 construct: purchased Perkin Elmer Biosignal
T4 sequence (P33032 whole entry): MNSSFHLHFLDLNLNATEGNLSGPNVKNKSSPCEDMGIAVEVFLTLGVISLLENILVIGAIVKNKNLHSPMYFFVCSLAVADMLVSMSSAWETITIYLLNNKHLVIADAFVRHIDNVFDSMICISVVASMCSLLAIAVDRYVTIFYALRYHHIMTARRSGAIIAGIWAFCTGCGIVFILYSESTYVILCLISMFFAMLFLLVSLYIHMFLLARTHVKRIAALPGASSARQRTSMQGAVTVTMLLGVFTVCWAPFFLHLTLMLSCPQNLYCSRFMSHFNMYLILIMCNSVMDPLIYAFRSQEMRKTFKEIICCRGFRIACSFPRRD
Method in brief: as §1

[5] = target: T5, Human μ-opioid (MOP) (Homo sapiens, UniProt P35372); experiment: Radioligand binding, human μ-opioid (MOP) membranes, FlashPlate, [3H]-Naloxone
T5 construct: purchased Perkin Elmer Biosignal
T5 sequence (P35372 whole entry): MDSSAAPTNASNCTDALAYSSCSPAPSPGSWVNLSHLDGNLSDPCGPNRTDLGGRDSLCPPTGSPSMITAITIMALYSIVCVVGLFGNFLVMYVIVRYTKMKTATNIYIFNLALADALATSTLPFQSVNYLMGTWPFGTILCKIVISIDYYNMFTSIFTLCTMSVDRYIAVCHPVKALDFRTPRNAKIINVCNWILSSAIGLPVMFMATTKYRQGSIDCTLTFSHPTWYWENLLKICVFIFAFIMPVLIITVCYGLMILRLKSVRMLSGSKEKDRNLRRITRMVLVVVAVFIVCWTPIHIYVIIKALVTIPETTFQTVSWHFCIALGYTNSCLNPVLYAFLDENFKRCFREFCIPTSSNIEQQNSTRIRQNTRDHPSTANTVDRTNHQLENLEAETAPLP
Method in brief: as §1

[6] = target: T6, Human Melanocortin (MC4) (Homo sapiens, UniProt P32245); experiment: Radioligand binding, human melanocortin MC4 membranes, FlashPlate, [125I]-NDP-αMSH
T6 construct: purchased Perkin Elmer Biosignal
T6 sequence (P32245 whole entry): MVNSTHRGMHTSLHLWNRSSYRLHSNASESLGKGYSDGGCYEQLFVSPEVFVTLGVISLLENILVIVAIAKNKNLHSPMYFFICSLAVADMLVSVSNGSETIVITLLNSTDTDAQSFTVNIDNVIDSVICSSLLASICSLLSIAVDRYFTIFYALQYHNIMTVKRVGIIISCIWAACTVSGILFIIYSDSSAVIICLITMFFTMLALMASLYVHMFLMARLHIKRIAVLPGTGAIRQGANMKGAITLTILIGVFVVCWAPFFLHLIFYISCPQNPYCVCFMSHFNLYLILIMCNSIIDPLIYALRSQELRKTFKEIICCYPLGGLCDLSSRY
Method in brief: as §1

[7] = target: T7, Human neurokinin (NK1) (Homo sapiens, UniProt P25103); experiment: Radioligand binding, human neurokinin NK1 membranes, filtration, [125I]-Substance P
T7 construct: purchased Perkin Elmer Biosignal
T7 sequence (P25103 whole entry): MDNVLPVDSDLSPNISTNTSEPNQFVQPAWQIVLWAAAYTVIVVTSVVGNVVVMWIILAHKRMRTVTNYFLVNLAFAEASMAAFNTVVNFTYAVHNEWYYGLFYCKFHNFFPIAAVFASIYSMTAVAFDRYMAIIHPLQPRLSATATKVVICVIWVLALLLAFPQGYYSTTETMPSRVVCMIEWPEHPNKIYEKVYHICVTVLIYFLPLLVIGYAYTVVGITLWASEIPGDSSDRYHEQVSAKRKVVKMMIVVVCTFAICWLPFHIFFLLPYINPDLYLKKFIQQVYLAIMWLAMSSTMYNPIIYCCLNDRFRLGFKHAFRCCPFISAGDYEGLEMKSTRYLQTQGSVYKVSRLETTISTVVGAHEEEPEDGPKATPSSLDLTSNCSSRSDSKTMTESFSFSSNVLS
Method in brief: (§2)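 Percent inhibition of radioligand binding measured on recombinant human membranes: NK1 with [125I]-Substance P, KOP with [3H]-Diprenorphine. Incubation 1 h at room temperature, then harvest onto 0.3% PEI-soaked filters, cold Tris-HCl pH 7.4 washes and scintillation counting; non-specific binding from reference ligand wells.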

[8] = target: T8, Human Melanocortin (MC3) (Homo sapiens, UniProt P41968); experiment: Radioligand binding, human melanocortin MC3 membranes, FlashPlate, [125I]-NDP-αMSH
T8 construct: purchased Perkin Elmer Biosignal
T8 sequence (P41968 whole entry): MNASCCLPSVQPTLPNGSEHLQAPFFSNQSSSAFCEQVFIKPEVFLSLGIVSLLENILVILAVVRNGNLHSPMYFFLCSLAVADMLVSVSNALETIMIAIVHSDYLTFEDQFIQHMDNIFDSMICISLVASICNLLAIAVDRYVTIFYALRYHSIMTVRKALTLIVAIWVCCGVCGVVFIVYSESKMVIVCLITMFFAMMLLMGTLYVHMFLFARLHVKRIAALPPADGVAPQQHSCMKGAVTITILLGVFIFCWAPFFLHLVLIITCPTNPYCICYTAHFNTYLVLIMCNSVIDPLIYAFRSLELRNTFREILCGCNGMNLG
Method in brief: as §1

[9] = target: T9, Human κ-Opioid (KOP) (Homo sapiens, UniProt P41145); experiment: Radioligand binding, human κ-opioid (KOP) membranes, filtration, [3H]-Diprenorphine
T9 construct: purchased Perkin Elmer Biosignal
T9 sequence (P41145 whole entry): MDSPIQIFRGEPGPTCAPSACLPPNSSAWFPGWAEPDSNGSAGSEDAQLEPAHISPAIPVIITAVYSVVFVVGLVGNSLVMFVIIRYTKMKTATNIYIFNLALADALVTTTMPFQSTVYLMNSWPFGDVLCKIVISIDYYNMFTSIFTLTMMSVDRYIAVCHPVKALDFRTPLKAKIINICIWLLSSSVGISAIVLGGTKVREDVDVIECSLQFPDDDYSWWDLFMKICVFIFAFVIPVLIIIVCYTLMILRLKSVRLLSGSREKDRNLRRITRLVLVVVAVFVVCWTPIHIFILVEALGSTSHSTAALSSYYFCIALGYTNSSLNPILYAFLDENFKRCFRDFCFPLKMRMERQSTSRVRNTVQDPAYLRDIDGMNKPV
Method in brief: as §2

[10] = target: T10, Human neuropeptide Y (NPY-Y1) (Homo sapiens, UniProt P25929); experiment: Radioligand binding, human neuropeptide Y NPY-Y1 membranes, FlashPlate, [125I]-PYY
T10 construct: purchased Perkin Elmer Biosignal
T10 sequence (P25929 1-384): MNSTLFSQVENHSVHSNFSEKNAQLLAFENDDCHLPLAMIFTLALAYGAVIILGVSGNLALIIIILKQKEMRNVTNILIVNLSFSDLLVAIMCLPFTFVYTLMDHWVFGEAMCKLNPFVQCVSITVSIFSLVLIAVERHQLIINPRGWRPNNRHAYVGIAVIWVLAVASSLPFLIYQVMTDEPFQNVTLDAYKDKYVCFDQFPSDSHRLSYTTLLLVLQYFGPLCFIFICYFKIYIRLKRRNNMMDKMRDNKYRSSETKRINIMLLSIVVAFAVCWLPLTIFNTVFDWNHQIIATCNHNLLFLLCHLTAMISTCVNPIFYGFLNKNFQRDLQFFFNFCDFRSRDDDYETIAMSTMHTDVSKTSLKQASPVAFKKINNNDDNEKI
Method in brief: as §1

[11] = target: T11, Human opioid (ORL1) (Homo sapiens, UniProt P41146); experiment: Radioligand binding, human opioid ORL1 membranes, FlashPlate, [125I]-Nociceptin
T11 construct: purchased Perkin Elmer Biosignal
T11 sequence (P41146 whole entry): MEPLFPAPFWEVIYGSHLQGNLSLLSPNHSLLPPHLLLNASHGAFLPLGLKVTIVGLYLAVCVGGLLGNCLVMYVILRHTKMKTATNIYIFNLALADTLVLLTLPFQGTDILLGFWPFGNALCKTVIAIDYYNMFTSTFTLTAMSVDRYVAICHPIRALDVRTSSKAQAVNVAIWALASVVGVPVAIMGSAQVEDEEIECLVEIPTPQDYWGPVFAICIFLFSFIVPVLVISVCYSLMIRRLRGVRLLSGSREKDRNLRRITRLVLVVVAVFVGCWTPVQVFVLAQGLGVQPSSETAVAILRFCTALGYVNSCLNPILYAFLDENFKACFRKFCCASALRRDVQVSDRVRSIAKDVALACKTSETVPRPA
Method in brief: as §1

T1 sequence (Q99705 whole entry): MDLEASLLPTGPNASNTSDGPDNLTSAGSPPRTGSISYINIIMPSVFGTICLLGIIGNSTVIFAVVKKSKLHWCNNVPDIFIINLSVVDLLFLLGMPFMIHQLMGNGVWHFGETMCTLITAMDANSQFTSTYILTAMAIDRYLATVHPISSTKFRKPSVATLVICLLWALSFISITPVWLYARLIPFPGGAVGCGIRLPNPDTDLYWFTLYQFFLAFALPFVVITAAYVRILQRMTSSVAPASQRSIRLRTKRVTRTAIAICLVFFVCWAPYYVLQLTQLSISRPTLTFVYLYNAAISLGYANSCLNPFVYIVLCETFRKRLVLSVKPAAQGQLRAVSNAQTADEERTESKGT

SMILES: CO[C@H]1[C@H](O)[C@@H](COCc2ccc(-c3ccccc3)cc2)OC(OCc2ccc(-c3ccccc3)cc2)[C@@H]1NC(=O)CCCNC(=N)N (stereo partly shown) [compound 54]
- A6 radioligand binding inhibition ([1]; human MCH1 membranes): + (“+” indicates greater than 50% inhibition at 10 μM)
- A11 radioligand binding inhibition ([2]; mouse urotensin mUR2 membranes): − (“−” indicates less than 50% inhibition at 10 μM)
- A1 radioligand binding inhibition ([3]; human δ-opioid (DOP) membranes): − (“−” indicates less than 50% inhibition at 10 μM)
- A5 radioligand binding inhibition ([4]; human melanocortin MC5 membranes): + (“+” indicates greater than 50% inhibition at 10 μM)
- A7 radioligand binding inhibition ([5]; human μ-opioid (MOP) membranes): + (“+” indicates greater than 50% inhibition at 10 μM)
- A4 radioligand binding inhibition ([6]; human melanocortin MC4 membranes): + (“+” indicates greater than 50% inhibition at 10 μM)
- A8 radioligand binding inhibition ([7]; human neurokinin NK1 membranes): + (“+” indicates greater than 50% inhibition at 10 μM)
- A3 radioligand binding inhibition ([8]; human melanocortin MC3 membranes): + (“+” indicates greater than 50% inhibition at 10 μM)
- A2 radioligand binding inhibition ([9]; human κ-opioid (KOP) membranes): − (“−” indicates less than 50% inhibition at 10 μM)
- A9 radioligand binding inhibition ([10]; human NPY-Y1 membranes): − (“−” indicates less than 50% inhibition at 10 μM)
- A10 radioligand binding inhibition ([11]; human ORL1 membranes): + (“+” indicates greater than 50% inhibition at 10 μM)

SMILES: [N-]=[N+]=N[C@H]1C(OCCNC(=N)N)O[C@H](COCc2ccc3ccccc3c2)[C@@H](O)[C@@H]1OCc1ccccc1 (stereo partly shown) [compound 126]
- A6 radioligand binding, percentage inhibition ([1]; [125I]-S36057): + (“+” indicates greater than 50% inhibition at 10 μM)
- A11 radioligand binding, percentage inhibition ([2]; [125I]-Urotensin II): − (“−” indicates less than 50% inhibition at 10 μM)
- A1 radioligand binding, percentage inhibition ([3]; [3H]-Bremazocine): − (“−” indicates less than 50% inhibition at 10 μM)
- A5 radioligand binding, percentage inhibition ([4]; [125I]-NDP-αMSH): + (“+” indicates greater than 50% inhibition at 10 μM)
- A7 radioligand binding, percentage inhibition ([5]; [3H]-Naloxone): − (“−” indicates less than 50% inhibition at 10 μM)
- A4 radioligand binding, percentage inhibition ([6]; [125I]-NDP-αMSH): + (“+” indicates greater than 50% inhibition at 10 μM)
- A8 radioligand binding, percentage inhibition ([7]; [125I]-Substance P): + (“+” indicates greater than 50% inhibition at 10 μM)
- A3 radioligand binding, percentage inhibition ([8]; [125I]-NDP-αMSH): − (“−” indicates less than 50% inhibition at 10 μM)
- A2 radioligand binding, percentage inhibition ([9]; [3H]-Diprenorphine): − (“−” indicates less than 50% inhibition at 10 μM)
- A9 radioligand binding, percentage inhibition ([10]; [125I]-PYY): − (“−” indicates less than 50% inhibition at 10 μM)
- A10 radioligand binding, percentage inhibition ([11]; [125I]-Nociceptin): − (“−” indicates less than 50% inhibition at 10 μM)

SMILES: NCCCC(=O)NC1C(OCc2ccc3ccccc3c2)OC(COCc2ccccc2)C(O)C1OCc1ccccc1 (single isomer, unassigned) [compound 468]
- A6: inhibition of radioligand binding ([1]; [125I]-S36057, human MCH1 membranes): − (“−” indicates less than 50% inhibition at 10 μM)
- A11: inhibition of radioligand binding ([2]; [125I]-Urotensin II, mouse mUR2 membranes): − (“−” indicates less than 50% inhibition at 10 μM)
- A1: inhibition of radioligand binding ([3]; [3H]-Bremazocine, human DOP membranes): − (“−” indicates less than 50% inhibition at 10 μM)
- A5: inhibition of radioligand binding ([4]; [125I]-NDP-αMSH, human MC5 membranes): − (“−” indicates less than 50% inhibition at 10 μM)
- A7: inhibition of radioligand binding ([5]; [3H]-Naloxone, human MOP membranes, 10 µM): + (“+” indicates greater than 50% inhibition at 10 μM)
- A4: inhibition of radioligand binding ([6]; [125I]-NDP-αMSH, human MC4 membranes, 10 µM): − (“−” indicates less than 50% inhibition at 10 μM)
- A8: inhibition of radioligand binding ([7]; [125I]-Substance P, human NK1 membranes): + (“+” indicates greater than 50% inhibition at 10 μM)
- A3: inhibition of radioligand binding ([8]; [125I]-NDP-αMSH, human MC3 membranes): − (“−” indicates less than 50% inhibition at 10 μM)
- A2: inhibition of radioligand binding ([9]; [3H]-Diprenorphine, human KOP membranes): − (“−” indicates less than 50% inhibition at 10 μM)
- A9: inhibition of radioligand binding ([10]; [125I]-PYY, human NPY-Y1 membranes): − (“−” indicates less than 50% inhibition at 10 μM)
- A10: inhibition of radioligand binding ([11]; [125I]-Nociceptin, human ORL1 membranes, 10 µM): + (“+” indicates greater than 50% inhibition at 10 μM)

SMILES: CSC1O[C@H](COCc2ccccc2)[C@@H](O)[C@@H](OCc2ccc(-c3ccccc3)cc2)[C@H]1NC(=O)CNC(=N)N (stereo partly shown) [compound 284]
- A6: inhibition of radioligand binding, human melanin-concentrating hormone (MCH1) ([1]; [125I]-S36057): − (“−” indicates less than 50% inhibition at 10 μM)
- A11: inhibition of radioligand binding, mouse urotensin (mUR2) ([2]; [125I]-Urotensin II): − (“−” indicates less than 50% inhibition at 10 μM)
- A1: inhibition of radioligand binding, human δ-opioid (DOP) ([3]; [3H]-Bremazocine): − (“−” indicates less than 50% inhibition at 10 μM)
- A5: inhibition of radioligand binding, human melanocortin (MC5) ([4]; [125I]-NDP-αMSH): + (“+” indicates greater than 50% inhibition at 10 μM)
- A7: inhibition of radioligand binding, human μ-opioid (MOP) ([5]; [3H]-Naloxone): − (“−” indicates less than 50% inhibition at 10 μM)
- A4: inhibition of radioligand binding, human melanocortin (MC4) ([6]; [125I]-NDP-αMSH): + (“+” indicates greater than 50% inhibition at 10 μM)
- A8: inhibition of radioligand binding, human neurokinin (NK1) ([7]; [125I]-Substance P): + (“+” indicates greater than 50% inhibition at 10 μM)
- A3: inhibition of radioligand binding, human melanocortin (MC3) ([8]; [125I]-NDP-αMSH): − (“−” indicates less than 50% inhibition at 10 μM)
- A2: inhibition of radioligand binding, human κ-opioid (KOP) ([9]; [3H]-Diprenorphine): − (“−” indicates less than 50% inhibition at 10 μM)
- A9: inhibition of radioligand binding, human neuropeptide Y (NPY-Y1) ([10]; [125I]-PYY): − (“−” indicates less than 50% inhibition at 10 μM)
- A10: inhibition of radioligand binding, human opioid (ORL1) ([11]; [125I]-Nociceptin): − (“−” indicates less than 50% inhibition at 10 μM)

SMILES: CO[C@H]1[C@H](O)[C@@H](COCc2ccc3ccccc3c2)OC(OCc2ccc(Cl)cc2)[C@@H]1NC(=O)C(N)CN (stereo partly shown) [compound 351]
- A6: inhibition of radioligand binding, human melanin-concentrating hormone (MCH1) ([1]; [125I]-S36057): − (“−” indicates less than 50% inhibition at 10 μM)
- A11: inhibition of radioligand binding, mouse urotensin (mUR2) ([2]; [125I]-Urotensin II): − (“−” indicates less than 50% inhibition at 10 μM)
- A1: inhibition of radioligand binding, human δ-opioid (DOP) ([3]; [3H]-Bremazocine): − (“−” indicates less than 50% inhibition at 10 μM)
- A5: inhibition of radioligand binding, human melanocortin (MC5) ([4]; [125I]-NDP-αMSH): − (“−” indicates less than 50% inhibition at 10 μM)
- A7: inhibition of radioligand binding, human μ-opioid (MOP) ([5]; [3H]-Naloxone): − (“−” indicates less than 50% inhibition at 10 μM)
- A4: inhibition of radioligand binding, human melanocortin (MC4) ([6]; [125I]-NDP-αMSH): − (“−” indicates less than 50% inhibition at 10 μM)
- A8: inhibition of radioligand binding, human neurokinin (NK1) ([7]; [125I]-Substance P): + (“+” indicates greater than 50% inhibition at 10 μM)
- A3: inhibition of radioligand binding, human melanocortin (MC3) ([8]; [125I]-NDP-αMSH): − (“−” indicates less than 50% inhibition at 10 μM)
- A2: inhibition of radioligand binding, human κ-opioid (KOP) ([9]; [3H]-Diprenorphine): − (“−” indicates less than 50% inhibition at 10 μM)
- A9: inhibition of radioligand binding, human neuropeptide Y (NPY-Y1) ([10]; [125I]-PYY): − (“−” indicates less than 50% inhibition at 10 μM)
- A10: inhibition of radioligand binding, human opioid (ORL1) ([11]; [125I]-Nociceptin): − (“−” indicates less than 50% inhibition at 10 μM)
